# Test results from PubChem BioAssay (NCI).
#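 How tested: cells in 96-well plates exposed to compound for 48 hours at five concentrations. GI50 marks 50% less growth. TGI marks complete inhibition of growth.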
# Legend:
# Assay in all cases: NCI anticancer screen, dose series, 48 h
# [1] = system: ACHN renal
# [2] = system: NCI/ADR-RES ovarian
# [3] = system: RXF 393 renal
# [4] = system: SF-539 CNS
# [5] = system: SNB-19 CNS
# [6] = system: 786-0 renal
# [7] = system: HCT-15 colon
# [8] = system: OVCAR-8 ovarian
# [9] = system: DU-145 prostate
# [10] = system: OVCAR-3 ovarian
# [11] = system: SF-268 CNS
# [12] = system: PC-3 prostate
# [13] = system: SK-MEL-2 melanoma
# [14] = system: BT-549 breast
# [15] = system: SF-295 CNS
# [16] = system: MDA-MB-435
# [17] = system: SK-OV-3 ovarian
# [18] = system: SK-MEL-5 melanoma
# [19] = system: M14 melanoma
# [20] = system: UO-31 renal
# [21] = system: CAKI-1 renal
# [22] = system: NCI-H460 lung
# [23] = system: T-47D breast
# [24] = system: A498 renal
# [25] = system: SR leukemia
# [26] = system: U251 CNS
# [27] = system: SNB-75 CNS
# [28] = system: NCI-H226 lung
# [29] = system: OVCAR-5 ovarian
# [30] = system: SW-620 colon
# [31] = system: CCRF-CEM leukemia
# [32] = system: MCF7 breast
# [33] = system: K-562 leukemia
# [34] = system: HS 578T breast
# [35] = system: HCC-2998 colon
# [36] = system: NCI-H522 lung
# [37] = system: TK-10 renal
# [38] = system: UACC-257 melanoma
# [39] = system: A549 NSCLC
# [40] = system: COLO 205 colon
# [41] = system: HCT-116 colon
# [42] = system: MOLT-4 leukemia
# [43] = system: UACC-62 melanoma
# [44] = system: MDA-MB-231 breast
# [45] = system: HOP-92 NSCLC
# [46] = system: SK-MEL-28 melanoma
# [47] = system: HL-60(TB) leukemia
# [48] = system: LOX IMVI melanoma
# [49] = system: MALME-3M melanoma
# [50] = system: RPMI-8226 leukemia
# [51] = system: OVCAR-4 ovarian
# [52] = system: HT29 colon
# [53] = system: NCI-H23 lung
# [54] = system: EKVX NSCLC
# [55] = system: HOP-62 NSCLC
# [56] = system: SN12C renal
# [57] = system: IGROV1 ovarian
# [58] = system: KM12 colon
compound,measurement,setting,value
O=C(NO)c1ccc(Cn2c(=O)n(-c3ccccc3F)c(=O)c3ccccc32)cc1,GI50,[1],2.04 µM
same,TGI,[1],5.59 µM
same,GI50,[2],2.54 µM
same,TGI,[2],43 µM
same,GI50,[3],1.33 µM
same,TGI,[3],2.9 µM
same,GI50,[4],1.53 µM
same,TGI,[4],4.58 µM
same,GI50,[5],2.54 µM
same,TGI,[5],18.2 µM
same,GI50,[6],1.82 µM
same,TGI,[6],3.65 µM
same,GI50,[7],1.92 µM
same,TGI,[7],4.42 µM
same,GI50,[8],1.05 µM
same,TGI,[8],5.11 µM
same,GI50,[9],2.09 µM
same,TGI,[9],> 100 µM
same,GI50,[10],2.15 µM
same,TGI,[10],6.41 µM
same,GI50,[11],1.74 µM
same,TGI,[11],4.01 µM
same,GI50,[12],1.7 µM
same,TGI,[12],4.31 µM
same,GI50,[13],1.29 µM
same,TGI,[13],3.43 µM
same,GI50,[14],1.9 µM
same,TGI,[14],4.13 µM
same,GI50,[15],1.66 µM
same,TGI,[15],3.29 µM
same,GI50,[16],1.55 µM
same,TGI,[16],3.26 µM
same,GI50,[17],1.96 µM
same,TGI,[17],4.87 µM
same,GI50,[18],1.51 µM
same,TGI,[18],2.96 µM
same,GI50,[19],1.53 µM
same,TGI,[19],3.05 µM
same,GI50,[20],1.83 µM
same,TGI,[20],4.75 µM
same,GI50,[21],2.25 µM
same,TGI,[21],7.15 µM
same,GI50,[22],1.9 µM
same,TGI,[22],10.4 µM
same,GI50,[23],1.38 µM
same,TGI,[23],5.92 µM
same,GI50,[24],1.02 µM
same,TGI,[24],2.57 µM
same,GI50,[25],1.56 µM
same,TGI,[25],> 100 µM
same,GI50,[26],1.55 µM
same,TGI,[26],3.16 µM
same,GI50,[27],1.45 µM
same,TGI,[27],4.78 µM
same,GI50,[28],1.43 µM
same,TGI,[28],3.27 µM
same,GI50,[29],1.45 µM
same,TGI,[29],7 µM
same,GI50,[30],1.59 µM
same,TGI,[30],4.37 µM
same,GI50,[31],2.07 µM
same,TGI,[31],> 100 µM
same,GI50,[32],2.21 µM
same,TGI,[32],> 100 µM
same,GI50,[33],2.62 µM
same,TGI,[33],> 100 µM
same,GI50,[34],1.9 µM
same,TGI,[34],11.9 µM
same,GI50,[35],1.42 µM
same,TGI,[35],2.96 µM
same,GI50,[36],0.542 µM
same,TGI,[36],2.05 µM
same,GI50,[37],1.43 µM
same,TGI,[37],5.16 µM
same,GI50,[38],1.25 µM
same,TGI,[38],3.22 µM
same,GI50,[39],2.74 µM
same,TGI,[39],7.83 µM
same,GI50,[40],1.39 µM
same,TGI,[40],3.76 µM
same,GI50,[41],1.14 µM
same,TGI,[41],3.19 µM
same,GI50,[42],2.34 µM
same,TGI,[42],> 100 µM
same,GI50,[43],1.24 µM
same,TGI,[43],3.02 µM
same,GI50,[44],3.03 µM
same,TGI,[44],7.89 µM
same,GI50,[45],1.77 µM
same,TGI,[45],4.75 µM
same,GI50,[46],1.77 µM
same,TGI,[46],4.25 µM
same,GI50,[47],3.48 µM
same,TGI,[47],> 100 µM
same,GI50,[48],1.71 µM
same,TGI,[48],3.2 µM
same,GI50,[49],0.892 µM
same,TGI,[49],3.16 µM
same,GI50,[50],1.19 µM
same,TGI,[50],18.9 µM
same,GI50,[51],1.9 µM
same,TGI,[51],12.9 µM
same,GI50,[52],2.02 µM
same,TGI,[52],10.5 µM
COc1ccc(-c2cc(-c3ccc(O)cc3)nc3n[nH]c(N)c23)cc1,GI50,[1],18.2 µM
same,TGI,[1],87.9 µM
same,GI50,[2],23.1 µM
same,TGI,[2],51.9 µM
same,GI50,[3],29 µM
same,TGI,[3],92.5 µM
same,GI50,[4],14.7 µM
same,TGI,[4],28.6 µM
same,GI50,[5],33.3 µM
same,TGI,[5],> 100 µM
same,GI50,[53],26.5 µM
same,TGI,[53],68.3 µM
same,GI50,[6],26 µM
same,TGI,[6],74.3 µM
same,GI50,[7],25.9 µM
same,TGI,[7],95 µM
same,GI50,[8],26.1 µM
same,TGI,[8],91.6 µM
same,GI50,[9],15.3 µM
same,TGI,[9],36.5 µM
same,GI50,[10],13.5 µM
same,TGI,[10],31.7 µM
same,GI50,[54],15.3 µM
same,TGI,[54],52.3 µM
same,GI50,[11],19.6 µM
same,TGI,[11],56.2 µM
same,GI50,[55],21.9 µM
same,TGI,[55],53.9 µM
same,GI50,[12],29.1 µM
same,TGI,[12],> 100 µM
same,GI50,[13],16.4 µM
same,TGI,[13],35.1 µM
same,GI50,[14],15.5 µM
same,TGI,[14],32.6 µM
same,GI50,[15],18.5 µM
same,TGI,[15],51.9 µM
same,GI50,[16],22 µM
same,TGI,[16],47.4 µM
same,GI50,[18],15.1 µM
same,TGI,[18],28.8 µM
same,GI50,[19],21.3 µM
same,TGI,[19],43 µM
same,GI50,[20],10.4 µM
same,TGI,[20],28.2 µM
same,GI50,[21],20.2 µM
same,TGI,[21],78.3 µM
same,GI50,[22],21.6 µM
same,TGI,[22],58.2 µM
same,GI50,[23],18 µM
same,TGI,[23],83.5 µM
same,GI50,[56],19.2 µM
same,TGI,[56],36.5 µM
same,GI50,[24],16.8 µM
same,TGI,[24],36.6 µM
same,GI50,[25],24.1 µM
same,TGI,[25],> 100 µM
same,GI50,[26],18.6 µM
same,TGI,[26],46.7 µM
same,GI50,[27],31.7 µM
same,TGI,[27],> 100 µM
same,GI50,[28],17.9 µM
same,TGI,[28],49.5 µM
same,GI50,[29],15.1 µM
same,TGI,[29],48.2 µM
same,GI50,[30],15.6 µM
same,TGI,[30],38.1 µM
same,GI50,[31],21.6 µM
same,TGI,[31],81.8 µM
same,GI50,[32],16.7 µM
same,TGI,[32],56.8 µM
same,GI50,[33],35.3 µM
same,TGI,[33],> 100 µM
same,GI50,[34],19.6 µM
same,TGI,[34],43.3 µM
same,GI50,[36],14.5 µM
same,TGI,[36],33.6 µM
same,GI50,[37],29.8 µM
same,TGI,[37],> 100 µM
same,GI50,[38],21.8 µM
same,TGI,[38],56.9 µM
same,GI50,[57],17 µM
same,TGI,[57],52.2 µM
same,GI50,[58],16.3 µM
same,TGI,[58],40.7 µM
same,GI50,[39],26.8 µM
same,TGI,[39],> 100 µM
same,GI50,[40],14.6 µM
same,TGI,[40],32.4 µM
same,GI50,[41],17.4 µM
same,TGI,[41],37.3 µM
same,GI50,[42],26.9 µM
same,TGI,[42],> 100 µM
same,GI50,[43],17.2 µM
same,TGI,[43],34.5 µM
same,GI50,[44],14.9 µM
same,TGI,[44],50.3 µM
same,GI50,[45],11.9 µM
same,TGI,[45],28.7 µM
same,GI50,[46],33.6 µM
same,TGI,[46],> 100 µM
same,GI50,[48],17 µM
same,TGI,[48],36.4 µM
same,GI50,[49],21 µM
same,TGI,[49],44 µM
same,GI50,[50],21.1 µM
same,TGI,[50],66.8 µM
same,GI50,[51],43.3 µM
same,TGI,[51],> 100 µM
same,GI50,[52],22.6 µM
same,TGI,[52],> 100 µM
